Target: unphosphorylated-BTK kinase domain (UP-BTK), GST-tagged human BTK (389-659aa) (Homo sapiens (Human), UniProt Q06187)
Test: BTK Kinase Lanthascreen Binding Assay
Details: compound, 50 nM Tracer 236, 2 nM anti-GST antibody, 60 minutes; pIC50 = negative log of the IC50 in molar
Procedure: BTK Kinase Lanthascreen Binding Assay:
A BTK kinase lanthascreen binding assay monitors compound binding to unphosphorylated-BTK kinase domain (UP-BTK), by competing with a fluorescent labeled tracer. […] Data were analyzed using Xlfit™ version 5.3 from ID Business Solutions (Guildford), Microsoft Excel add-in. pIC50 refers to the negative log of the IC50 in molar.

Chain of unphosphorylated-BTK kinase domain (UP-BTK), GST-tagged human BTK (389-659aa) (Q06187 389-659): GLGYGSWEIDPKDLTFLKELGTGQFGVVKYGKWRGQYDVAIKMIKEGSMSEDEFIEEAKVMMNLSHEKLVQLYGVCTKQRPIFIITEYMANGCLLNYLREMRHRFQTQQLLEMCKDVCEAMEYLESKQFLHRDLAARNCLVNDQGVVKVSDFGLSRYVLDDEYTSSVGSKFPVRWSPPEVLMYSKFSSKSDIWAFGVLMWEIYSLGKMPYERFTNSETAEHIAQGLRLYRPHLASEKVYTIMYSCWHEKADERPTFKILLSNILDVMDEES

In order of falling “BTK_I_binding pIC50” value:
1. N[C@@H]1CCCC[C@H]1NC(=O)c1sc2nccc3c2c1NC(=O)N3c1ccc(Oc2ccccc2)cc1 [Example 149, N-((1R,2R)-2-Aminocyclohexyl)-4-oxo-5-(4-phenoxyphenyl)-4,5-dihydro-3H-1-thia-3,5,8-triazaacenaphthylene-2-carboxamide]  6.45
2. Cc1cc(OC(C)C)ccc1N1C(=O)Nc2c(C(=O)N[C@H]3CC[C@@H](NC(=O)/C=C/CN(C)C)C3)sc3nccc1c23 [Example 153, N-((1S,3R)-3-((E)-4-(Dimethylamino)but-2-enamido)cyclopentyl)-5-(4-isopropoxy-2-methylphenyl)-4-oxo-4,5-dihydro-3H-1-thia-3,5,8-triazaacenaphthylene-2-carboxamide]  6.44
3. CC(C)(C)OC(=O)N[C@@H]1CC[C@H](NC(=O)c2sc3nccc4c3c2NC(=O)N4c2ccc(Oc3ccccc3)cc2)C1 [Example 150, tert-Butyl ((1R,3S)-3-(4-oxo-5-(4-phenoxyphenyl)-4,5-dihydro-3H-1-thia-3,5,8-triazaacenaphthylene-2-carboxamido)cyclopentyl)carbamate]  6.40
4. CC(C)(C)OC(=O)N[C@H]1CC[C@H](NC(=O)c2sc3nccc4c3c2NC(=O)N4c2ccc(Oc3ccccc3)cc2)CC1 [Example 151, tert-Butyl trans-((1R,4R)-4-(4-oxo-5-(4-phenoxyphenyl)-4,5-dihydro-3H-1-thia-3,5,8-triazaacenaphthylene-2-carboxamido)cyclohexyl)carbamate]  6.33
5. O=C(NCC1(O)CCCCC1)c1sc2nccc3c2c1NC(=O)N3c1ccc(Oc2ccccc2)cc1 [Example 152, N-((1-Hydroxycyclohexyl)methyl)-4-oxo-5-(4-phenoxyphenyl)-4,5-dihydro-3H-1-thia-3,5,8-triazaacenaphthylene-2-carboxamide]  6.25
6. O=C(N[C@H]1CCC[C@@H](O)C1)c1sc2nccc3c2c1NC(=O)N3c1ccc(Oc2ccccc2)cc1 [Example 157, N-((1S,3R)-3-Hydroxycyclohexyl)-4-oxo-5-(4-phenoxyphenyl)-4,5-dihydro-3H-1-thia-3,5,8-triazaacenaphthylene-2-carboxamide]  6.19
7. Cc1cc(OC(C)C)ccc1N1C(=O)Nc2c(C(=O)N[C@H]3CC[C@@H](NC(=O)CN(C)C)C3)sc3nccc1c23 [Example 158, N-((1S,3R)-3-(2-(Dimethylamino)acetamido)cyclopentyl)-5-(4-isopropoxy-2-methylphenyl)-4-oxo-4,5-dihydro-3H-1-thia-3,5,8-triazaacenaphthylene-2-carboxamide]  6.11
8. CC(C)(C)OC(=O)N[C@H]1CC[C@@H](NC(=O)c2sc3nccc4c3c2NC(=O)N4c2ccc(Oc3ccccc3)cc2)CC1 [Example 163, tert-Butyl ((1S,4S)-4-(4-oxo-5-(4-phenoxyphenyl)-4,5-dihydro-3H-1-thia-3,5,8-triazaacenaphthylene-2-carboxamido)cyclohexyl)carbamate]  5.43

Same assay, conditions: read-out: BTK_I_binding pIC50 (converted)

`CCC(=O)N[C@@H]1CCC[C@@H]1NC(=O)c1sc2nccc3c2c1NC(=O)N3c1ccnc(-c2ccccc2)c1` [Example 159, 4-Oxo-5-(2-phenylpyridin-4-yl)-N-((1S,2R)-2-propionamidocyclopentyl)-4,5-dihydro-3H-1-thia-3,5,8-triazaacenaphthylene-2-carboxamide] and `Cc1cc(OC(C)C)ccc1N1C(=O)Nc2c(C(=O)N[C@@H]3CCCC[C@@H]3N)sc3nccc1c23` [Example 160, N-((1R,2S)-2-Aminocyclohexyl)-5-(4-isopropoxy-2-methylphenyl)-4-oxo-4,5-dihydro-3H-1-thia-3,5,8-triazaacenaphthylene-2-carboxamide] cannot be ordered by IC50: over 1000 nM for the first, over 1000 nM for the second.

`CNCC(=O)N[C@@H]1CC[C@H](NC(=O)c2sc3nccc4c3c2NC(=O)N4c2ccc(OC(C)C)cc2C)C1` [Example 161, 5-(4-Isopropoxy-2-methylphenyl)-N-((1S,3R)-3-(2-(methylamino)acetamido)cyclopentyl)-4-oxo-4,5-dihydro-3H-1-thia-3,5,8-triazaacenaphthylene-2-carboxamide] showed an IC50 of over 1000 nM.

— patent US10934310B2, “Inhibitors of Bruton's tyrosine kinase and method of their use” (JANSSEN PHARMACEUTICA NV, priority 2015, dated 2021)
